Values quoted from earlier work, collected in patent publication US20150216918A1, “FERMENTED SOY NUTRITIONAL SUPPLEMENTS INCLUDING MUSHROOM COMPONENTS” (priority 2010, published 2015).

Tested on: tumor cells

CC(C)CCCCCCCCCCCC(=O)O [MDT-13, 13-methyl-tetradecanoic acid]
induction of apoptosis in tumor cells: induce apoptosis
